These results are taken from publication PMC12015293 (Communications Biology, 2025).

This experiment relates to osteoclastogenesis of bone marrow-derived monocyte/macrophage precursor cells (BMMs). Description: RANKL-induced osteoclast differentiation of BMMs. Particulars: 10 μM, late stage. Type of experiment: cell-based, mouse (C57BL/6).

For the compound `C[S+]([O-])c1ccc(-c2nc(-c3ccncc3)c(-c3ccc(F)cc3)[nH]2)cc1` (stereo not shown) [SB203580], the “effect of p38 inhibitor on osteoclastogenesis” value is “also inhibited osteoclastogenesis”.
